Measurements reported in patent US20250367170A1, “TOPICAL ANGIOTENSIN II RECEPTOR BLOCKERS (ARBS) FOR TREATING EYE CONDITIONS” (The Cleveland Clinic Foundation, priority 2022, published 2025).

Columns and labels:
Assay type in all cases: in vivo, New Zealand White rabbits
[1] = test system: rabbit corneas after 1N NaOH alkali burn injury; assay: Slit lamp stromal opacity area and intensity (ImageJ) one month after alkali burn; details: topical 0.2 mg/ml losartan and/or 1% prednisolone acetate six times per day
Protocol: All animal treatments and care were approved by the Institutional Animal Care and Use Committee (IACUC) at the Cleveland Clinic Foundation (Cleveland, OH, USA) and the Animal Care and Use Review Office of the Department of the Army (Fort Detrick, MD). All rabbits were treated in accordance with the tenets of the ARVO Statement for the Use of Animals in Ophthalmic and Vision Research. Sixteen 10- to 15-week-old female New Zealand White rabbits weighing 2.5 to 3.0 kg each were included in this example.
(§1) Alkali injuries were produced in one eye of rabbits with previously published methods^10 using 1N sodium hydroxide (Sigma, St. Louis, MO) in balanced salt solution (BSS, 0.64% sodium chloride, 0.075% potassium chloride, 0.048% calcium chloride dihydrate, 0.03% magnesium chloride hexahydrate, 0.39% sodium acetate trihydrate, 0.17% sodium citrate dihydrate, pH 7.5, Alcon, Ft. Worth, TX) and a 5 mm diameter circular Whatman No. 1 filter paper (Cat #1001-6508, Fisher Scientific) wetted with 100 μl of 1N NaOH solution. Following the alkali burn injury, the cornea was irrigated profusely with BSS. Each injured cornea also received one drop of ciprofloxacin (Alcon, Ft. Worth, TX, USA) ten minutes after surgery and four times a day for one week and at least 15 minutes apart from the study medications.
(§2) Worth TX), at least 5 minutes apart, or 4) 50 μl of BSS.
At one month after sodium hydroxide exposure and treatments, with the rabbits under ketamine-xylazine general anesthesia, the eyes were dilated with two drops of 1% tropicamide (Akom Co., Lake Forest, IL) for thirty minutes. The study eye in each rabbit had slit lamp photographs with standardized illumination level and angle of illumination at 20× magnification with a Topcon (Oakland, NJ, USA) SL-D7 slit lamp photography system. For each study eye, the total area of opacity was determined by outlining the opacity with the freehand selection tool using ImageJ 1.53a analysis software calibrated to mm^2. The “raw internal density” in pixels for the opacified area in each cornea was also determined using ImageJ.

[2] = test system: central corneal neovascularization (CNV); assay: Corneal angiography for central corneal neovascularization after alkali burn; details: topical six times per day, one month, all four vehicle corneas positive
Protocol: as §1, §2
All corneas had fluorescent angiography at the peak of dye passage in the cornea immediately after injection of 1.5 ml of 10% sodium fluorescein (McKesson, Irvine, TX) in the central ear vein with the slit lamp system and digital camera system using a “barrier filter” that only transmitted 520-530 nm, the peak of fluorescein emission, with broad illumination of the cornea, as previously described.^11

collagen type IV = assay: IHC collagen type IV intensity in anterior and posterior stroma after alkali burn; details: one month
Protocol: Multiplex immunohistochemistry (IHC) was performed using previously described methods^8 and primary antibodies (Table 7) confirmed by western blotting and IHC to recognize rabbit antigens or isotypic control antibodies (Thermo Fisher Scientific, Waltham, MA), and secondary fluorescent tagged antibodies (Table 7). The collagen type IV antibody (Cat. #AB769, Millipore, Temecula CA) was raised against purified human and bovine collagen type IV that had been affinity purified with human and bovine collagen type IV crosslinked to agarose and cross-absorbed by the manufacturer with human and bovine collagens type I, II, III, V and VI to eliminate cross-reactivity. This collagen type IV antibody was shown previously to bind rabbit collagen IV in IHC,^8,9 and recognizes the alpha-1/alpha-2 chains but not the alpha-3 to alpha-6 chains. The keratocan antibody is raised against peptide […]-OH (SEQ ID NO:1). This marker was used to identify keratocytes in situ. […] All corneas in each group had IHC for collagen type IV. Images from each cornea were converted to uniform 300 DPI, 875×568 pixel, files. […] The staining intensity within each box was determined with the analyze histogram function and the mean of three boxes was the intensity value in the anterior or posterior stroma for that cornea.

SMILES: CC(=O)OCC(=O)[C@@]1(O)CC[C@H]2[C@@H]3CCC4=CC(=O)C=C[C@]4(C)[C@H]3[C@@H](O)C[C@@]21C [prednisolone acetate]
- total corneal opacity area measured with ImageJ, vs BSS vehicle [1]: decreased
- total opacity in pixels in the opacified area of cornea, vs vehicle BSS group [1]: trended towards decreased total opacity
- corneas (of four) that developed central corneal neovascularization [2]: one
- mean intensity units of collagen type IV in the anterior stroma vs vehicle (collagen type IV): trend towards a decrease
